“Also recorded” adds a separate entry of the source. Positions of bridges follow the written chain, without caps; N, C: chain ends. Non-standard residues stand in square brackets, D forms with d. Chains are numbered I, II in the order given. No end group written: not given here. Gla = N[C@@H](CC(C(=O)O)C(=O)O)C(=O)O
These substances were tested against T1, human insulin receptor-B (hIR-B) (Homo sapiens, UniProt P06213) (assay: Competition binding to hIR-B against Eu-labeled human insulin).
T1 construct: expressed in transfected cells; lysate captured on an anti-IR antibody-coated plate
Description: Receptor binding was measured as described previously. […] Cells were serum-starved for 4 hours before lysis. Lysates were captured in a 96-well plate previously coated with anti-IR antibody. […] After washing, time-resolved fluorescence was measured using 340-nm excitation and 612-nm emission filters with the BMG Lab Technologies Polarstar fluorometer.

T1 sequence (P06213 28-758 limits assumed): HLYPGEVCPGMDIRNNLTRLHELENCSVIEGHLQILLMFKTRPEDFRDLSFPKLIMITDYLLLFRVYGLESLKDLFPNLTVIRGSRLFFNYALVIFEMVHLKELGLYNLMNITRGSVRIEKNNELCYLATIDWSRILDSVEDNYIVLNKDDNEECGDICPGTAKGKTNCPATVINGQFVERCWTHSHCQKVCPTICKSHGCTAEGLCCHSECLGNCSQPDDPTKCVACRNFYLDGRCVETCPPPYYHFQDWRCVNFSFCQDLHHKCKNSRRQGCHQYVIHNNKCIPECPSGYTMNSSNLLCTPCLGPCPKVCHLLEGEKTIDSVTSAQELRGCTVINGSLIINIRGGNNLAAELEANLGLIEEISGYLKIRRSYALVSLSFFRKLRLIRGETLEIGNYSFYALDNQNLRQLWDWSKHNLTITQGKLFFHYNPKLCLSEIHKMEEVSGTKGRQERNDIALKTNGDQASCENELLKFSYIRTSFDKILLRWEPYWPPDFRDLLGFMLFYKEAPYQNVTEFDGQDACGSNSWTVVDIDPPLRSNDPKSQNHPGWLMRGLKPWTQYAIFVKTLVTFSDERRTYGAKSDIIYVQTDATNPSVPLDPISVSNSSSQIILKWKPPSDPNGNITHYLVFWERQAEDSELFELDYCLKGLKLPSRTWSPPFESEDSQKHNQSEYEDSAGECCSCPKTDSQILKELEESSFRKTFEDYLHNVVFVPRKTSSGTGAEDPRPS
T1 sequence (P06213 763-1382 limits assumed): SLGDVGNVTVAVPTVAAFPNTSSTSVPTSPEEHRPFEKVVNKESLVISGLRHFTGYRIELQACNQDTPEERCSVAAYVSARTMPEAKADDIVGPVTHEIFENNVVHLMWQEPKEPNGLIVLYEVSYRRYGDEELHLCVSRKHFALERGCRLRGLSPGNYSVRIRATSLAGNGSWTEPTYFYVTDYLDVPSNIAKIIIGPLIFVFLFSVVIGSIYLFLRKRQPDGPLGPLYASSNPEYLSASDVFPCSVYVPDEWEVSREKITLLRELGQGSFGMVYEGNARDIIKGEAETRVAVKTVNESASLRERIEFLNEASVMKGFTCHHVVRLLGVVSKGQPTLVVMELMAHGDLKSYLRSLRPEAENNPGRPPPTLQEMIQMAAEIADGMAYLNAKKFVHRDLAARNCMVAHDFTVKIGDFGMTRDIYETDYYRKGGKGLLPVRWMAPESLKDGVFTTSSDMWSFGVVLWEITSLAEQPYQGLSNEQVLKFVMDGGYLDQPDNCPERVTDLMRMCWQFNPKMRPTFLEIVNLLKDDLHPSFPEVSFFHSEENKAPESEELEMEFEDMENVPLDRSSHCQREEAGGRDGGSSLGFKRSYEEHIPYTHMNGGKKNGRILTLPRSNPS

Substance	hIR-B binding, result in words
I: NSDTPKHRCGSELADQYVYLCHGERNDA-NH2 / II: GIV[Gla]VCCDNPCTVATLRTFCH (disulfide I:9-II:7, I:21-II:20, II:6-II:11; C-terminus assumed) [Con-Ins G4b]	low nanomolar binding
I: TNIPATLILQKHRCGSELADQYVQLCH-NH2 / II: GIV[Gla]VCCDNPCTVATLRTFCH (disulfide I:14-II:7, I:26-II:20, II:6-II:11; C-terminus assumed) [Con-Ins G7]	potent hIR-B binding; also recorded: low nanomolar binding
I: NSDTPKHRCVSELADQYVQLCH-NH2 / II: GIV[Gla]VCCDNPCTVATLRTFCH (disulfide I:9-II:7, I:21-II:20, II:6-II:11; C-terminus assumed) [Con-Ins G3c]	completely abolishes hIR-B binding
